Laboratory results from patent publication US20250032489A1, “MIXED LINEAGE KINASE INHIBITORS AND METHODS OF USE” (The U.S.A., as represented by the Secretary, Department of …, priority 2022, published 2025).
Where two headings read alike, the source gives them in different places. Where a SMILES comes first, the peptide text is derived from it. The star is where a group is joined. Cbz = O=C(OCc1ccccc1)*

How the values were obtained:
[1] = PAMPA (parallel artificial membrane permeability assay); type: in vitro ADME
Method: (§1) Substituents were varied to improve binding affinity to LZK and selectivity over DLK. KD values were measured by Eurofins DiscoveRx using the Kd-Elect system. Parallel artificial membrane permeability assay (PAMPA) values were measured by Cyprotex.

[2] = test system: c-MYC; assay: Western blot of c-MYC abundance; type: cell-based; details: CAL33 and BICR56 cells depleted of LZK for 48 hours, 10 μM for six hours
Method: Generally, cells were plated in six-well or 35-mm plates for 24 hours, after which doxycycline was added or treatment with specific inhibitor was administered using 5% FBS media for 48 hours. After appropriate treatment time, cells were washed with ice-cold phosphate-buffered saline without Ca and Mg (Quality Biological) and then lysed on ice with RIPA buffer ([…], 1.0% IGEPAL® CA-630, 0.5% sodium deoxycholate, 0.1% SDS, 50 mM Tris, pH 8.0) (Sigma-Aldrich) supplemented with protease inhibitor tablet (Sigma-Aldrich) and phosphatase inhibitor cocktails 2 and 3 (Sigma-Aldrich) followed by centrifugation at 15,000 rpm for 10 minutes at 4° C. Protein concentrations were determined from the cell lysate by using 660 nm Protein Assay Reagent (Pierce). Cell extracts were denatured, subjected to SDS-PAGE, transferred to PVDF membranes (Bio-Rad) and blocked for 2 hours using 5% bovine serum albumin (BSA) in phosphate-buffered saline and 0.1% Tween® 20 (PBS-T). The membranes were incubated with the specific antibodies overnight in 5% BSA/PBST at 4° C. followed by a 1 hour incubation with the appropriate horseradish peroxidase-conjugated secondary antibodies and signal was detected by chemiluminescence (Thermo Fisher).

[3] = molecular target: T1, LZK (Homo sapiens (Human), UniProt O43283); assay: KD determination, Eurofins DiscoveRx Kd-Elect; type: binding
T1 sequence (O43283 whole entry): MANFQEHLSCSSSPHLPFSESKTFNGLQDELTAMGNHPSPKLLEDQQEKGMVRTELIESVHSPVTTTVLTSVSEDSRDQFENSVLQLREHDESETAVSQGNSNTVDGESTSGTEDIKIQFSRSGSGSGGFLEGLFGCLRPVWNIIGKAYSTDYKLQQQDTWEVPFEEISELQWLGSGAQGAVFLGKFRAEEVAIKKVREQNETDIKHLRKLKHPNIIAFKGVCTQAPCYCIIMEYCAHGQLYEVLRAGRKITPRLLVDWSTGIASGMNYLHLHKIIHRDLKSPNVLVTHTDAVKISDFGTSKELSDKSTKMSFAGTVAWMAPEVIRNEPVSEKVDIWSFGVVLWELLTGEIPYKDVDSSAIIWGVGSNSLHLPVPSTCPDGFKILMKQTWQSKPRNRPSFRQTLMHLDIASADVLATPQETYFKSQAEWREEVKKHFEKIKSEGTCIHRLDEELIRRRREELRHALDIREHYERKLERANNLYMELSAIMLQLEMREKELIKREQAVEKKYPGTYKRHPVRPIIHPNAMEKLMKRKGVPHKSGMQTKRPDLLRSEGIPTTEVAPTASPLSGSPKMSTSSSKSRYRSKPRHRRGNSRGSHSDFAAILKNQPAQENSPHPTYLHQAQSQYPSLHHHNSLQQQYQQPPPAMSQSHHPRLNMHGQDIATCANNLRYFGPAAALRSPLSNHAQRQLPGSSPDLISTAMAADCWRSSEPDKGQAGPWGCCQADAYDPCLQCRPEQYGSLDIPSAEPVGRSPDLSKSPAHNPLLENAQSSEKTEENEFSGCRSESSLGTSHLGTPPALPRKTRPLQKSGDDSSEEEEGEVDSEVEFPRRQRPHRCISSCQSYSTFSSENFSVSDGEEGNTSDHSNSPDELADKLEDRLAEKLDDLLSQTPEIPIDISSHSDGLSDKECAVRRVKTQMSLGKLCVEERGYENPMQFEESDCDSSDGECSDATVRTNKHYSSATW
Method: as §1
(§2) KD values were calculated with a standard dose-response curve using the Hill equation: […]
(§3) The Hill Slope was set to −1. Curves were fitted using a non-linear least square fit with the Levenberg-Marquardt algorithm.

[4] = molecular target: T1, LZK; assay: Phospho-JNK ELISA in doxycycline-induced CAL33 cells expressing LZK; type: cell-based; details: for Phospho-JNK levels: 1 μM LZK inhibitor, 1 hour, compared to GNE-3511 control
Excerpt: The ViraPower HiPerform T-REx Gateway Expression System (Invitrogen) was used to generate cells with tetracycline-inducible expression of LZK. In brief, wild-type (WT) or drug-resistant mutant (Q240S) LZK (cloned into pLenti6.3/TO/V5-DEST vector) and pLenti3.3/TR (for tetracycline repressor expression) were transfected into 293FT cells using Lipofectamine 2000 to generate lentiviral stock. Cell lines were generated by antibiotic selection (blasticidin [Gibco] and geneticin [Gibco]). Doxycycline (Sigma-Aldrich) was used at 1 μg/mL to induce LZK expression.
A PathScan® Phospho-SAPK/JNK (Thr183/Tyr185) Sandwich ELISA Assay (Cell Signaling Technology) was used for ELISA assays following the manufacturer's protocol. In general, 500,000 cells were plated and treated with doxycycline the following day where appropriate and incubated at 37° C. for 48 hours. Cells were treated with the drug compound or control in 5% FBS media for 1 hour. After appropriate treatment time, cells were lysed on ice with 1× Cell Lysis Buffer (Cell Signaling Technology) supplemented with phosphatase and protease inhibitors (Sigma). Each diluted cell lysate was added to Phospho-SAPK/JNK (Thr183/Tyr185)Rabbit mAb Coated microwells in triplicate and incubated overnight at 4° C. Samples were treated with the following antibodies and incubated at 37° C. for 1 hour and 30 minutes, respectively: Detection Antibody and HRP-Linked secondary antibody. Samples were washed between treatments using 1× Wash Buffer according to the manufacturer's protocol. TMB substrate was added to each well and incubated at 37° C. for 10 minutes. Following this, STOPsolution was added to each well and absorbance was measured at 450 nm using iMark™ Microplate Absorbance Reader (Bio-Rad). Graphs display relative phospho-JNK levels.

[5] = molecular target: DLK (Homo sapiens (Human), UniProt Q12852); assay: KD determination, Eurofins DiscoveRx Kd-Elect; type: binding
DLK, sequence (Q12852 whole entry): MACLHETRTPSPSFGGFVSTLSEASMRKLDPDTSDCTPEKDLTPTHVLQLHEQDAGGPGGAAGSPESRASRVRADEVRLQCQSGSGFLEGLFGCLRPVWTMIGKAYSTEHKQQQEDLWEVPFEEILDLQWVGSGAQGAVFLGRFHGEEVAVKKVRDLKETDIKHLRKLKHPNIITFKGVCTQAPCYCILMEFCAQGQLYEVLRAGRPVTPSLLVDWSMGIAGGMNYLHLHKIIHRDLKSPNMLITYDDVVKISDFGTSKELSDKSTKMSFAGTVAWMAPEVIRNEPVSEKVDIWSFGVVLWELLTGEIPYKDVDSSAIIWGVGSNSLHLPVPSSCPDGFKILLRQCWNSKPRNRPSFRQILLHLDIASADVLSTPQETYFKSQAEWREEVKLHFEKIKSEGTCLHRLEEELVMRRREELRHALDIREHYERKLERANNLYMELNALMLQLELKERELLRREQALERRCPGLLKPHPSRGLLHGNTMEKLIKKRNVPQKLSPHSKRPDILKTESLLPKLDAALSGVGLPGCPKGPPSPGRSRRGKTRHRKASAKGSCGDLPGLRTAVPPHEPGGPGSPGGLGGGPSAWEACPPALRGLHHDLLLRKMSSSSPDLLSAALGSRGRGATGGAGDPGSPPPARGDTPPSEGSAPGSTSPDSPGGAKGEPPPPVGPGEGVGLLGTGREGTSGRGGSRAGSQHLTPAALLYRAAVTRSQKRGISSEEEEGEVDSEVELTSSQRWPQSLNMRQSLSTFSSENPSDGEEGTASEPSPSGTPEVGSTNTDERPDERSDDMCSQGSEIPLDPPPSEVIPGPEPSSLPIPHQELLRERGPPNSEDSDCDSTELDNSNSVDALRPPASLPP
Method: as §1, §2, §3

[6] = test system: OVCAR5 cells; assay: Colony formation assay; type: cell-based
Method: (§4) Crystal violet assays were used to assess relative cell growth and survival after treatment with specific compounds. In general, cells were plated in triplicate in 12-well plates for 24 hours before drug treatments were added using 10% FBS media. The plates were incubated for 14 days, with the media and drug being replaced every 48 hours. The cells were then washed with phosphate-buffered saline and fixed in ice-cold methanol before being stained with 0.5% crystal violet (Sigma-Aldrich) in 25% methanol. Images were taken using a ChemiDoc MP Imaging System (Bio Rad), and for quantification, the crystal violet stain was dissolved in 33% acetic acid, incubated for 20 minutes with shaking, and read at 595 nm using iMark™ Microplate Absorbance Reader (Bio-Rad). Graphs display percent colony formation relative to the DMSO-treated control sample.

[7] = test system: KYSE70 cells; assay: Colony formation assay; type: cell-based
Method: as §4

CC(=O)NC12CC(n3cc(-c4cnc(N)c(OC(F)(F)F)c4)nc3C(O)C(C)C)(C1)C2 (stereo not drawn) [DLK-IN-2, reference compound]
Mean permeability ([1]; PAMPA): 0.5352 10^−6 cm/sec

CC(C)C(O)c1nc(-c2cnc(N)c(OC(F)(F)F)c2)cn1C12CC(N)(C1)C2 (stereo not drawn) [DLK-IN-3, reference compound]
Mean permeability ([1]; PAMPA): 2.9021 10^−6 cm/sec

CC(C)C[C@@H](C=O)NC(=O)[C@H](CC(C)C)NC(=O)[C@H](CC(C)C)NC(=O)OCc1ccccc1 [MG132] (Cbz-Leu-Leu-Leu-aldehyde)
c-MYC levels in cells depleted of LZK [2]: rescued decreases in the c-MYC levels

CC(=O)NC12CC(n3cc(-c4cnc(N)c(C(F)(F)F)n4)nc3C(O)C(C)C)(C1)C2 (stereo not drawn) [compound 44]
Kd ([3]; read-out: Kd values): 0.094 µM

CC(=O)NC12CC(n3cc(-c4cnc(N)c(C#N)n4)nc3C(O)C(C)C)(C1)C2 (stereo not drawn) [compound 45]
Kd ([3]; read-out: Kd values): 0.44 µM

CC(=O)NC12CC(n3cc(-c4cnc(N)cn4)nc3C(O)C(C)C)(C1)C2 (stereo not drawn) [compound 46]
Kd ([3]; read-out: Kd values): > 10 µM

CC(=O)N1CCC(c2cc(Nc3cnccn3)nc(N3CCC(F)(F)C3)c2)CC1 [compound 100]
Mean permeability [1]: 16.9436 10^−6 cm/sec | PAMPA [1]: 16.94 | Inhibition of downstream JNK pathway activation ([4]; ELISA assay): effective inhibitor

CC(=O)N1CCC(c2cc(Nc3ccn(C)n3)nc(N3CCC(F)(F)C3)c2)CC1 [compound 101]
Kd ([5]; in μM): > 10 µM | Kd ([3]; in μM, read-out: LZK KD): > 10 µM

CC(=O)N1CCC(c2cc(Nc3cc4[nH]ccc4cn3)nc(N3CCC(F)(F)C3)c2)CC1 [compound 104]
Kd ([5]; in μM): > 10 µM | Kd ([3]; in μM, read-out: LZK KD): > 10 µM

CC(=O)N1CCC(c2cc(Nc3cnc(C)cn3)nc(N3CCC(F)(F)C3)c2)CC1 [compound 107]
Phospho-JNK levels [4]: particularly effective

CC(=O)N1CCC(c2cc(Nc3cncc(C)n3)nc(N3CCC(F)(F)C3)c2)CC1 [compound 108]
Kd ([5]; in μM): > 10 µM | Kd ([3]; in μM, read-out: LZK KD): > 10 µM

CC(=O)N1CCC(c2cc(Nc3nccnc3C)nc(N3CCC(F)(F)C3)c2)CC1 [compound 109]
Kd ([5]; in μM): > 10 µM | Kd ([3]; in μM, read-out: LZK KD): > 10 µM

CC(=O)N1CCC(c2cc(Nc3cnc4ccccc4n3)nc(N3CCC(F)(F)C3)c2)CC1 [compound 112]
Kd ([5]; in μM): > 10 µM | Kd ([3]; in μM, read-out: LZK KD): > 10 µM

CC(=O)N1CCC(c2cc(Nc3cn(C)cn3)nc(N3CCC(F)(F)C3)c2)CC1 [compound 114]
Kd [5]: 1.2 µM | Kd ([3]; read-out: LZK KD): 1.5 µM

COc1cnc(Nc2cc(C3CCN(C(C)=O)CC3)cc(N3CCC(F)(F)C3)n2)cn1 [compound 115]
Kd ([3]; read-out: LZK KD): 0.3 µM

CC(=O)N1CCC(c2cc(Nc3ncccn3)nc(N3CCC(F)(F)C3)c2)CC1 [compound 117]
Kd ([5]; in μM): > 10 µM | Kd ([3]; in μM, read-out: LZK KD): > 10 µM

Cc1cnc(Nc2cc(C3CCN(C4CCC4)CC3)cc(N3CCC(F)(F)C3)n2)cn1 [compound 162]
dose-dependent inhibition of LZK [4]: dose-dependent inhibition

Cc1cnc(Nc2cc(C3CCN(C4COC4)CC3)cc(N3CCC(F)(F)C3)n2)cn1 [compound 163]
Kd ([3]; read-out: LZK KD): 0.02 µM

Cc1cnc(Nc2cc(C3CCN(C4CCCC4)CC3)cc(N3CCC(F)(F)C3)n2)cn1 [compound 164]
dose-dependent inhibition of LZK [4]: dose-dependent inhibition | Phospho-JNK levels [4]: more effective than GNE-3511 | IC50 ([4]; read-out: inhibition of LZK IC50): ~100 nM | sensitivity (colony formation) [6]: sensitive

CC(=O)N1CC(c2cc(Nc3cnc(C)cn3)nc(N3CCC(F)(F)C3)c2)C1 [compound 165]
increase of Kd for DLK over the parent (107) [5]: 6 fold

CC(=O)N1CCC(c2cc(Nc3cnc(C)cn3)nc(N(C)CC3CC3)c2)CC1 [compound 186]
Kd ([3]; read-out: LZK KD): 0.09 µM

CC(=O)N1CCC(c2cc(Nc3cnc(C)cn3)nc(N3CCOCC3)c2)CC1 [compound 191]
Kd [5]: 0.17 µM | Kd ([3]; read-out: LZK KD): 0.23 µM

CC(=O)N1CCC(c2cc(Nc3cnc(C)cn3)nc(N3CCC(F)(F)CC3)c2)CC1 [compound 192]
Kd [5]: 0.12 µM | Kd ([3]; read-out: LZK KD): 0.065 µM

CC(=O)N1CCC(c2cc(Nc3cnc(C)cn3)nc(N3CCC4(CC4)C3)c2)CC1 [compound 201]
Kd [5]: 0.02 µM

CC(=O)N1CCC(c2cc(Nc3cnc(C)cn3)nc(N3CC4CC(C4)C3)c2)CC1 [compound 204]
Kd ([3]; read-out: LZK KD): 0.008 µM

CC(=O)N1CCC(c2cc(Nc3cnc(C)cn3)nc(N3CC4CC(C3)C4O)c2)CC1 (stereo not drawn) [compound 205]
Kd [5]: 0.1 µM

CC(=O)N1CCC(c2cc(Nc3cnc(C)cn3)nc(N3CC4CCC4C3)c2)CC1 (stereo not drawn) [compound 207]
Kd [5]: 0.18 µM | selectivity for LZK over DLK ([3]; from KD values): 180 fold | Kd ([3]; read-out: LZK KD): 0.00097 µM

CC(=O)N1CCC(c2cc(Nc3cnc(C)cn3)nc(N3CCC4(CC3)CC4)c2)CC1 [compound 208]
Kd [5]: 0.1 µM

c1nc(C2CC2)cnc1Nc1cc(C2CCN(CC3CC3)CC2)cc(N2CC3CC3C2)n1 (stereo not drawn) [compound 216]
sensitivity (colony formation) [7]: exquisitely sensitive | sensitivity (colony formation) [6]: exquisitely sensitive | Kd [5]: 0.002 µM

CC(=O)N1CC(c2cc(Nc3cnc(C4CC4)cn3)nc(N3CC4CC4C3)c2)C1 (stereo not drawn) [compound 218]
Kd [5]: 0.03 µM

c1nc(C2CC2)cnc1Nc1cc(C2CN(CC3CC3)C2)cc(N2CC3CC3C2)n1 (stereo not drawn) [compound 219]
sensitivity (colony formation) [7]: exquisitely sensitive | sensitivity (colony formation) [6]: exquisitely sensitive

c1nc(C2CC2)cnc1Nc1cc(C2CN(CC3CC3)C2)cc(N2CC3CCC3C2)n1 (stereo not drawn) [compound 228]
Kd ([3]; read-out: LZK KD): 0.007 µM
